Results from patent US11370774B2, “Substituted benzofuran, benzopyrrole, benzothiophene, and structurally related complement inhibitors” (BioCryst Pharmaceuticals, Inc., priority 2018, dated 2022).
pIC50: −log10 of the molar value.

Target: Factor D (Homo sapiens (Human), UniProt P00746)
Assay: Factor D esterolytic assay (Z-Lys-SBzl substrate, DTNB, 405 nm)
Assay type: biochemical
Settings: Z-Lys-SBzl 1.29 mM, pH 7.5, 10% DMSO, tested a minimum of three times, read-out: Measured Ki (IC50) Value for Compounds: IC50
Summary of the method: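 Thioester hydrolysis (Z-Lys-SBzl, 1.29 mM) by human Factor D ([…]) detected through DTNB color at 405 nm over 600 sec, minus 690 nm background. Buffer: 100 mM HEPES pH 7.5, 500 mM NaCl, 10% DMSO; optional room-temperature preincubation before substrate. IC50 derived from percent rate inhibition; at least three runs.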

Chain of Factor D (P00746 26-253): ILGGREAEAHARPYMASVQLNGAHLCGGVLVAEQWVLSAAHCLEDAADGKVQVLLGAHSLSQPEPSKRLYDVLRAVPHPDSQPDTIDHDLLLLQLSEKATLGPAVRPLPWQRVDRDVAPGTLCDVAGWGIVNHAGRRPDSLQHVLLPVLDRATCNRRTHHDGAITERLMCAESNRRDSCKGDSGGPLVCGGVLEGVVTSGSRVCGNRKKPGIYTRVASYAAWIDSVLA

NCc1nccc(-c2cc(COc3ccccc3CC(=O)O)cc3c2ccn3C(F)(F)F)c1F [Compound 533c, 2-(2-((4-(2-(aminomethyl)-3-fluoropyridin-4-yl)-1-(trifluoromethyl)-1H-indol-6-yl)methoxy)phenyl)acetic acid] and NCc1nccc(-c2cc(COc3ccccc3CC(=O)O)cc3ccoc23)c1F [Compound 80e, 2-(2-((7-(2-(aminomethyl)-3-fluoropyridin-4-yl)benzofuran-5-yl)methoxy)phenyl)acetic acid] cannot be ordered by pIC50: over 6.00 for the first, over 6.00 for the second.

Going from NCc1cccc(-c2cc(C(=O)Nc3ccccc3CC(=O)O)cn3cnnc23)c1 [Compound 17c, 2-(2-(8-(3-(aminomethyl)phenyl)-[1,2,4]triazolo[4,3-a]pyridine-6-carboxamido)phenyl)acetic acid] to NCc1cccc(-c2nc(C(=O)Nc3ccccc3CC(=O)O)c3cccn3n2)c1 [Compound 1h, 2-(2-(2-(3-(aminomethyl)phenyl)pyrrolo[2,1-f][1,2,4]triazine-4-carboxamido)phenyl)acetic acid], the pIC50 rises from under 5.00 to over 6.00. The second is the more potent here.

COCc1cc2cc(COc3cc(OC)ccc3CC(=O)O)cc(-c3cccc(CN)c3F)c2o1 [Compound 467b, 2-(2-((7-(3-(aminomethyl)-2-fluorophenyl)-2-(methoxymethyl)benzofuran-5-yl)methoxy)-4-methoxyphenyl)acetic acid] and NCc1cccc(-c2cc(COc3ccccc3CC(=O)O)cc3cc(CO)oc23)c1F [Compound 94c, 2-(2-((7-(3-(aminomethyl)-2-fluorophenyl)-2-(hydroxymethyl)benzofuran-5-yl)methoxy)phenyl)acetic acid] cannot be ordered by pIC50: over 6.00 for the first, over 6.00 for the second.

NCc1cccc(-c2cc(COc3ccccc3CC(=O)O)cc3cccnc23)c1 [Compound 285e, 2-(2-((8-(3-(aminomethyl)phenyl)quinolin-6-yl)methoxy)phenyl)acetic acid] and NCc1cccc(-c2cc(COc3ccccc3CC(=O)O)cn3ccnc23)c1 [Compound 102g, 2-(2-((8-(3-(aminomethyl)phenyl)imidazo[1,2-a]pyridin-6-yl)methoxy)phenyl)acetic acid] cannot be ordered by pIC50: over 6.00 for the first, over 6.00 for the second.

NCc1ccc(F)c(-c2nc(C(=O)Nc3ccccc3CC(=O)O)c3cccn3n2)c1 [Compound 47f, 2-(2-(2-(5-(aminomethyl)-2-fluorophenyl)pyrrolo[2,1-f][1,2,4]triazine-4-carboxamido)phenyl)acetic acid] and NCc1cccc(-c2cc(C(=O)Nc3ccccc3CC(=O)O)nc3[nH]ccc23)c1 [Compound 14d, 2-(2-(4-(3-(aminomethyl)phenyl)-1H-pyrrolo[2,3-b]pyridine-6-carboxamido)phenyl)acetic acid] fall in the same range of pIC50: 5.00 to 6.00 for the first, 5.00 to 6.00 for the second.

NCc1nccc(-c2cc(COc3cc(F)ccc3CC(=O)O)c(F)c3ccoc23)c1F [Compound 509d, 2-(2-((7-(2-(aminomethyl)-3-fluoropyridin-4-yl)-4-fluorobenzofuran-5-yl)methoxy)-4-fluorophenyl)acetic acid] and COc1ccc(CC(=O)O)c(OCc2cc(-c3ccnc(CN)c3F)c3ccn(C(C)C)c3c2)c1 [Compound 448c, 2-(2-((4-(2-(aminomethyl)-3-fluoropyridin-4-yl)-1-isopropyl-1H-indol-6-yl)methoxy)-4-methoxyphenyl)acetic acid] cannot be ordered by pIC50: over 6.00 for the first, over 6.00 for the second.

First: NCc1ccc(-c2cc(CC(=O)N3[C@@H]4C[C@@H]4C[C@H]3C(=O)NCc3cccc(Cl)c3F)cc3ccoc23)cc1 [Compound 275e, (1R,3S,5R)-2-(2-(7-(4-(aminomethyl)phenyl)benzofuran-5-yl)acetyl)-N-(3-chloro-2-fluorobenzyl)-2-azabicyclo[3.1.0]hexane-3-carboxamide]
Second: NCc1cccc(-c2cc(C(=O)Nc3ccccc3CC(=O)O)cc3c2ccn3CC2CC2)c1 [Compound 44c, 2-(2-(4-(3-(aminomethyl)phenyl)-1-(cyclopropylmethyl)-1H-indole-6-carboxamido)phenyl)acetic acid]
The pIC50 of the first is lower: 5.00 to 6.00 for the first, over 6.00 for the second. The second is the more potent here.
